Patent US20080214845A1, “ANTIBACTERIAL 6'-MODIFIED 4,5-SUBSTITUTED AMINOGLYCOSIDE ANALOGS” (priority 2005, published 2008)
Values after ≈ are worked out from the molar mass of the structure shown.

Tests used:
[1] = molecular target: 16S; test: Measurement of 16S Kd by FTICR mass spectrometry; type: binding
Procedure: (§1) Was performed according to the published report; […]-Lowery, […].; Mohan, […]. et al. Characterization of Low Affinity Complexes Between RNA and Small Molecules Using Electrospray Ionization Mass Spectrometry. J. Am. Chem. […] Screening is performed by measuring the formation of non-covalent complexes between a single ligand or ligand mixture and the appropriate RNA target, along with suitable control structured RNA target(s) simultaneously using a 9.4 T FT-ICR mass spectrometer as detector. Full experimental details of the assay have been described in related literature ([…]-Lowery, et al. in TrAC, Trends Anal. […] The abundances were integrated from the respective ions for free RNA and the ligand-RNA complex. […] The peak ratios are measured at each concentration, then a plot of complex/free RNA versus concentration of ligand added is fitted to a second (or higher) order binding polynomial to determine the KD.

[2] = tested on: E. Coli.; test: Minimum inhibitory concentration (MIC), E. coli; type: cell-based; conditions: range of concentration, 20-24 hours at 37° C., A595
Procedure: (§2) The assays are carried out in 150 μL volume in duplicate in 96-well clear flat-bottom plates. The bacterial suspension from an overnight culture growth in appropriate medium is added to a solution of test compound in 2.5% DMSO in water. Final bacterial inoculum is approximately 10^2-10^3 CFU/well. The percentage growth of the bacteria in test wells relative to that observed for a control wells containing no compound is determined by measuring absorbance at 595 nm (A595) after 20-24 hours at 37° C. The MIC is determined as a range of concentration where complete inhibition of growth is observed at the higher concentration and bacterial cells are viable at the lower concentration. Both ampicillin and tetracycline are used as antibiotic positive controls in each screening assay.

[3] = tested on: S. Aureus; test: Minimum inhibitory concentration (MIC), S. aureus; type: cell-based; conditions: range of concentration, 20-24 hours at 37° C., A595
Procedure: as §2

[4] = tested on: E. coli S30 bacterial extract (pBest Luc luciferase transcription/translation); test: Coupled bacterial transcription/translation assay (T/T); type: biochemical; conditions: luciferase reporter, 35 minutes at 37° C., read-out: Trans/Trans IC50
Procedure: The DNA template, pBest Luc™ (Promega), is a plasmid containing a reporter gene for firefly luciferase fused to a strong tac promoter and ribosome binding site. Messenger RNA from 1 μg pBestLuc was transcribed and translated in E. coli S30 bacterial extract in the presence or absence of test compound. Compounds were tested in a black 96 well microtiter plate with an assay volume of […]. Each test well contained: 5 μL test compound, 13 μL S30 premix (Promega), 4 μL 10× complete amino acid mix (1 mM each), 5 μL E. coli S30 extract and 8 μL of 0.125 μg/μL pBest Luc™. The transcription/translation reaction was incubated for 35 minutes at 37° C. followed by detection of functional luciferase with the addition of 30 μL LucLite™ (Packard). Light output was quantitated on a Packard TopCount.

[5] = tested on: Staphylococcus aureus (Smith strain ATCC 13709); test: Staphylococcus aureus mouse protection assay; type: in vivo; conditions: Staph conc. 10^6 IP in 10% mucin, treatments at 1 hour and 3 hour post infection
Procedure: Two of the novel aminoglycoside compounds of the invention were examined for their anitbacterial activity against staphylococcus aureus. The mice were infected IP with 0.5 ml […] staphylococcus aureus in 10% mucin. There were 10 mice in each treated group with treatments at 1 hour and 3 hour post infection. The Ibis compounds (IBIS00561085 R4═R5═CH3 and IBIS00561141 R4═H, R5═(CH2)2C6H5) were used at 75 mg/kg, 37.5 mg/kg, 18.8 mg/kg, 9.4 mg/kg, 4.7 mg/kg, 2.3 mg/kg, 1.17 mg/kg and 0.5 mg/kg. Amakacin, Paromomycin and Neomycin were used as the positive controls at concentration of 2 mg/kg, 1 mg/kg and 0.5 mg/kg.

[6] = molecular target: 18S; test: 18S Kd by FTICR mass spectrometry; type: binding
Procedure: as §1

Compound	Kd [1]	MIC E. Coli. [2]	MIC S. Aureus [3]	IC50 [4]	# Dead mice/Total mice in group ([5]; 0.5 mg/kg)	# Dead mice/Total mice in group ([5]; 1 mg/kg)	# Dead mice/Total mice in group ([5]; 2 mg/kg)	# Dead mice/Total mice in group ([5]; 4.5 mg/kg)	# Dead mice/Total mice in group ([5]; 9 mg/kg)	# Dead mice/Total mice in group ([5]; 18 mg/kg)	# Dead mice/Total mice in group ([5]; 37 mg/kg)	# Dead mice/Total mice in group ([5]; 75 mg/kg)	Kd [6]	MIC ([2]; Escherichia coli)	MIC ([3]; Staphylococcus aureus)
NCC1OC(OC2C(CO)OC(OC3C(O)C(N)CC(N)C3OC3OC(CNCCc4ccccc4)C(O)C(O)C3N)C2O)C(N)C(O)C1O (stereo not drawn) [IBIS00561141]	496 nM	1.25 to 2.5 µM	0.3125 to 0.625 µM	200 nM	7/10 (10% Mucin).	0/10 (10% Mucin)	0/10 (10% Mucin)	0/10 (10% Mucin)	0/10 (10% Mucin)	0/10 (10% Mucin)	0/10 (10% Mucin)	0/10 (10% Mucin)	2160 nM	–	–
NC[C@@H]1O[C@H](O[C@H]2[C@@H](O)[C@H](O[C@@H]3[C@@H](O)[C@H](N)C[C@H](N)[C@H]3O[C@H]3O[C@H](CN4CCOCC4)[C@@H](O)[C@H](O)[C@H]3N)O[C@@H]2CO)[C@H](N)[C@@H](O)[C@@H]1O [IBIS00561142]	3640 nM	–	–	349 nM	–	–	–	–	–	–	–	–	3000 nM	20 to 40 µM (≈ 13.7 to 27.4 µg/mL)	10 to 20 µM (≈ 6.85 to 13.7 µg/mL)
